Test results: patent US10555977B2, “Probiotic bacteria for the topical treatment of skin disorders” (DUPONT NUTRITION BIOSCIENCES APS, priority 2011, dated 2020)

What was measured:
occludin (OCLN) = test: Real-time quantitative PCR of occludin expression in differentiated keratinocytes; type: cell-based, human; conditions: 24 h, p<0.05
Experimental: (§1) Adult normal human primary keratinocytes (Invitrogen, Carlsbad, Calif., USA) were maintained in EpiLife® medium with 60 μM calcium (Invitrogen) supplemented with Human Keratinocyte Growth Supplement (HKGS) (Invitrogen) (basal medium) at 5% CO2 atmosphere. To differentiate the keratinocytes, the P5-P7 cells were plated on ThinCert™ cell culture inserts (Greiner Bio-one, Frickenhausen, Germany) at density of 10^5cells/cm^2. After overnight incubation at 5% CO2 atmosphere the basal medium was aspirated and changed to differentiation medium (DM) consisting of EpiLife® medium with 1.45 mM CaCl2 supplemented with human keratinocyte growth supplement and incubated for 4 days at 5% CO2 atmosphere. DM was changed both at both the apical and basolateral side every day. […]
(§2) Betaine (Danisco) were dissolved in DM, and applied to apical side of differentiated keratinocytes at amounts of 0, 10, 50, 100, 250 and 500 μM. The cells were incubated for 1, 12, and 24 hours at which points TEER was measured as described below. […]
(§3) Real-time quantitative PCR of claudin-4 (CLDN4), occludin (OCLN), zonula occludens-1 (ZO-1) was done with TaqMan gene expression assays (Applied biosystems, Foster City, Calif., USA) designed for each specific gene in an amplification reaction of 20 μl according to manufacturer's instructions with 7500 Fast Real-time PCR System (Applied Biosystems). […]

[1] = test system: zonula occludens-1 (ZO-1); test: Real-time quantitative PCR of zonula occludens-1 expression in differentiated keratinocytes; type: cell-based, human; conditions: betaine 10-500 μM, 24 h
Experimental: as §1, §2, §3

[2] = test system: Adult normal human primary keratinocytes (tight junction integrity); test: Transepithelial electrical resistance (TEER) of differentiated keratinocyte monolayers; type: cell-based; conditions: for % Change in TEER (additional increase): 24 h
Experimental: (§4) Adult normal human primary keratinocytes (Invitrogen, Carlsbad, Calif., USA) were maintained in EpiLife® medium with 60 μM calcium (Invitrogen) supplemented with Human Keratinocyte Growth Supplement (HKGS) (Invitrogen) (basal medium) at 5% CO2 atmosphere. To differentiate the keratinocytes, the P5-P7 cells were plated on ThinCert™ cell culture inserts (Greiner Bio-one, Frickenhausen, Germany) at density of 10^5cells/cm^2. After overnight incubation at 5% CO2 atmosphere the basal medium was aspirated and changed to differentiation medium (DM) consisting of EpiLife® medium with 1.45 mM CaCl2 supplemented with human keratinocyte growth supplement and incubated for 4 days at 5% CO2 atmosphere. DM was changed both at both the apical and basolateral side every day. Test substances were given at fourth day after starting the differentiation.
as §2
The integrity of the monolayer was verified by measuring TEER before and after each time point using Millicell-ERS system (Millipore, Billerica, Mass., US) (26). The TEER obtained from the monolayer and the insert was subtracted with background TEER obtained from the insert to yield the monolayer resistance and multiplied with the area of the insert to obtain the result as ohm×cm^2. For the experiments with betaine and probiotics the results are expressed as a percentage change in TEER (% Change in TEER) which reflects the change in the resistance in the given time point compared to a control time point, which was the same cell monolayer before applying the test substances.

claudin-4 (CLDN4) = test: Real-time quantitative PCR of claudin-4 expression in differentiated keratinocytes; type: cell-based, human; conditions: betaine 10-500 μM, 24 h
Experimental: as §4, §2
The differentiated keratinocytes were treated with soluble metabolites produced by probiotics, probiotic whole bacterial cells, and bacterial cell lysates from the apical side for 1 h, 8 h and 24 h at which the TEER was measured. […]

SMILES: C[N+](C)(C)CC(=O)O [betaine, Betaine]
- Expression of OCLN (occludin (OCLN); 100 μM betaine): decreased
- Expression of OCLN (occludin (OCLN); 250 μM betaine): decreased
- Expression of ZO-1 [1]: remained similar to the basal levels
- % Change in TEER ([2]; 50 μM and higher concentrations of betaine, after 12 h, p<0.05 to p<0.001): remained increased
- % Change in TEER ([2]; 50 μM betaine, after 1 hour, p<0.05): increased
- % Change in TEER (additional increase) ([2]; 100 μM betaine, p<0.05, mean±SE): 41.8±2.8%
- % Change in TEER (additional increase) ([2]; 500 μM betaine, p<0.01, mean±SE): 47.8±4.2%
- % Change in TEER ([2]; lowest amount of betaine (10 μM), apical side): remained at the basal level
- Expression of CLDN4 (claudin-4 (CLDN4)): remained similar to the basal levels
